Results reported in paper PMC3399817 (PLoS ONE, 2012).

How the values were obtained:
Test in all cases: KINOMEscan
Assay type in all cases: binding
[1] = molecular target: T1, KIT (Homo sapiens, UniProt P10721); settings: 1 uM
T1 construct: purchased Ambit KINOMEscan (DiscoverX)
Experimental: (§1) First, we used Ambit's KINOMEscan™ technology to identify those kinases that are inhibited for substrate binding by the compounds, all assayed at 1 μM. Second, we used Invitrogen's SelectScreen® Biochemical Kinase Profiling Service to determine the in vitro IC50s for the compounds against specific kinases.

[2] = molecular target: T2, DYRK1A (Homo sapiens, UniProt Q13627); settings: 1 uM
T2 construct: purchased Ambit KINOMEscan (DiscoverX)
Experimental: as §1

[3] = molecular target: T3, EPHB4 (Homo sapiens, UniProt P54760); settings: EPHB4, 1 uM
T3 construct: purchased Ambit KINOMEscan (DiscoverX)
Experimental: as §1

[4] = molecular target: T4, ABL1(E255K)-phosphorylated (Homo sapiens, UniProt P00519, E255K); settings: 1 uM
T4 construct: purchased Ambit KINOMEscan (DiscoverX)
Experimental: as §1

[5] = molecular target: T5, PKAC-beta (Homo sapiens, UniProt P22694); settings: 1 uM
T5 construct: purchased Ambit KINOMEscan (DiscoverX)
Experimental: as §1

[6] = molecular target: T6, ROCK2 (Homo sapiens, UniProt O75116); settings: for % binding compared to no inhibitor control: ROCK2, 1 uM
T6 construct: purchased Ambit KINOMEscan (DiscoverX)
T6 sequence (O75116 whole entry): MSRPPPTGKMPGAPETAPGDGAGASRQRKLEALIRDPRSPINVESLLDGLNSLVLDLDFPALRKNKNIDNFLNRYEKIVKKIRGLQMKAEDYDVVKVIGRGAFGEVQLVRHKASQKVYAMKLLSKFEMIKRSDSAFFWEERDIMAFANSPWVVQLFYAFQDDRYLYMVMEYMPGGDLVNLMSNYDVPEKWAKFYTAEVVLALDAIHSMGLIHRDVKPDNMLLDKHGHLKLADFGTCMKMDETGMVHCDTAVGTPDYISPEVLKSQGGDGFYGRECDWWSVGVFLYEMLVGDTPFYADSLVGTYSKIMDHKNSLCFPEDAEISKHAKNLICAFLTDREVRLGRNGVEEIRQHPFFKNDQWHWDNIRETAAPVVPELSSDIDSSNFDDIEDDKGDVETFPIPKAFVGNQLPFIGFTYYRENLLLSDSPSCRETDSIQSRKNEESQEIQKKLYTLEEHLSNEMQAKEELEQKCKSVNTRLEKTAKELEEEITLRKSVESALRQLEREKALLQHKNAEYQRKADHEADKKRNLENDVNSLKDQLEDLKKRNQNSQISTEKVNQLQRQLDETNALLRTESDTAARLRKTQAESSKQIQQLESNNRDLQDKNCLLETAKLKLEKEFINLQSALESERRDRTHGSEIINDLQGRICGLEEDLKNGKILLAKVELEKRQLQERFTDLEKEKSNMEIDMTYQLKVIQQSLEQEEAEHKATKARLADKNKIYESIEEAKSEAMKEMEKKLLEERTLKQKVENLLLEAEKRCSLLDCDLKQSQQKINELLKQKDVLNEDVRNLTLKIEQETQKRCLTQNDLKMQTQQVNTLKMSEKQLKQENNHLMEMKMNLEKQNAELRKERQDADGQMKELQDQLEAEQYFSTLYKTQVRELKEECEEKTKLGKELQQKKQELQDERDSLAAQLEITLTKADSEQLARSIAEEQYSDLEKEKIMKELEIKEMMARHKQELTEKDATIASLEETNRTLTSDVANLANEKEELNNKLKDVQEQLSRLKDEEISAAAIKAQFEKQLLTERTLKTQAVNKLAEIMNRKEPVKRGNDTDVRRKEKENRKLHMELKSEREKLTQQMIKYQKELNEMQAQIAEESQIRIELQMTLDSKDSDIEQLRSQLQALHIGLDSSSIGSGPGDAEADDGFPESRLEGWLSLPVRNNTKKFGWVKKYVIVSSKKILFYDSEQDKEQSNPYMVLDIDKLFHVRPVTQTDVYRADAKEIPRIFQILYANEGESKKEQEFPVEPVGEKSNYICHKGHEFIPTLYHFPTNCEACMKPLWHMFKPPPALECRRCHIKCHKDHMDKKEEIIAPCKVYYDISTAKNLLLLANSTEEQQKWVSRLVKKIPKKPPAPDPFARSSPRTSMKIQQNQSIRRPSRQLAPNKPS
Experimental: as §1

[7] = molecular target: T7, DAPK1 (Homo sapiens, UniProt P53355); settings: DAPK1, 1 uM
T7 construct: purchased Ambit KINOMEscan (DiscoverX)
Experimental: as §1

[8] = molecular target: T8, ALK (Homo sapiens, UniProt Q9UM73); settings: 1 uM
T8 construct: purchased Ambit KINOMEscan (DiscoverX)
T8 sequence (Q9UM73 19-1620): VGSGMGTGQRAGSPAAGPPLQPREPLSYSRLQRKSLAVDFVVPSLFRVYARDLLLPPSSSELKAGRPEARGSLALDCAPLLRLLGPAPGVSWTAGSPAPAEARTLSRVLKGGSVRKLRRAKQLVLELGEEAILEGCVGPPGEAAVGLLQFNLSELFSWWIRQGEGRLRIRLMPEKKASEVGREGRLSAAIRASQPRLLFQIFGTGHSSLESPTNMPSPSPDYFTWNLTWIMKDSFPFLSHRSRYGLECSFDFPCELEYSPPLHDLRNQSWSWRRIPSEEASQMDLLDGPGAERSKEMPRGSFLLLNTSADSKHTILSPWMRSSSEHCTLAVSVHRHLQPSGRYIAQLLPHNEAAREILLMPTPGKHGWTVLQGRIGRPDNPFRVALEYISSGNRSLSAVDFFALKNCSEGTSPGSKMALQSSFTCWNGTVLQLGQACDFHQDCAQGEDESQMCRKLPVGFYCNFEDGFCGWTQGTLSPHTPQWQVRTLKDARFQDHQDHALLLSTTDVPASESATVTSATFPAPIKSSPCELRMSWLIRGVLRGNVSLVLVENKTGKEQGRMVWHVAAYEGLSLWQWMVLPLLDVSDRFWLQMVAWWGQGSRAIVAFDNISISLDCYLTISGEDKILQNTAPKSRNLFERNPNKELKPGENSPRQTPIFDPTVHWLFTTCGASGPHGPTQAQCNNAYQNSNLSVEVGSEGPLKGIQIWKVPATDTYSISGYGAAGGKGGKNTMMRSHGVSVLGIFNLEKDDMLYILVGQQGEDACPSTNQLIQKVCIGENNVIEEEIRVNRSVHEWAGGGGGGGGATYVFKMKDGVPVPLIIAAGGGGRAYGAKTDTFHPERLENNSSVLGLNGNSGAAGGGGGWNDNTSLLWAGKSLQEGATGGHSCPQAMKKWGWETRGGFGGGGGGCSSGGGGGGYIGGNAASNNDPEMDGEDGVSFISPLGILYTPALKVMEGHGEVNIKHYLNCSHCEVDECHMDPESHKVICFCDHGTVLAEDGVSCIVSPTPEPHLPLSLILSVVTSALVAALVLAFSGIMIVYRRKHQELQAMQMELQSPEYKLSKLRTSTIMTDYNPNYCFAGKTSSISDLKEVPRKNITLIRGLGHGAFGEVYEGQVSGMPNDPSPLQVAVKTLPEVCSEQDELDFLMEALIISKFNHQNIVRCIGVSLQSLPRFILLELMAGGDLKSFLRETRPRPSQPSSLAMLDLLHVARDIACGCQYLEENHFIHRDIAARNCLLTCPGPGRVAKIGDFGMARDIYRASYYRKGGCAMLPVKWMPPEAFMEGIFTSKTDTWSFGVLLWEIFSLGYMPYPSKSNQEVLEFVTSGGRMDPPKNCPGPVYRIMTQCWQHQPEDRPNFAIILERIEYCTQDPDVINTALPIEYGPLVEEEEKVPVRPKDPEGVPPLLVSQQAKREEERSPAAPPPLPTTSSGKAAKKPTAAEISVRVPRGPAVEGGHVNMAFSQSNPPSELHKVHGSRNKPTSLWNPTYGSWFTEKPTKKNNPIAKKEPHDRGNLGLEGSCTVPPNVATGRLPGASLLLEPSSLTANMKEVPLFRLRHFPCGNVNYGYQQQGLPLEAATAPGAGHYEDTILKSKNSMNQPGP
Experimental: as §1

[9] = molecular target: T9, CSNK2A2 (Homo sapiens, UniProt P19784); settings: CSNK2A2, 1 uM
T9 construct: purchased Ambit KINOMEscan (DiscoverX)
Experimental: as §1

[10] = molecular target: T10, FRK (Homo sapiens, UniProt P42685); settings: 1 uM
T10 construct: purchased Ambit KINOMEscan (DiscoverX)
Experimental: as §1

[11] = molecular target: T11, LZK (Homo sapiens, UniProt O43283); settings: 1 uM
T11 construct: purchased Ambit KINOMEscan (DiscoverX)
Experimental: as §1

[12] = molecular target: T12, ANKK1 (Homo sapiens, UniProt Q8NFD2); settings: ANKK1, 1 uM
T12 construct: purchased Ambit KINOMEscan (DiscoverX)
Experimental: as §1

[13] = molecular target: T13, TBK1 (Homo sapiens, UniProt Q9UHD2); settings: TBK1, 1 uM
T13 construct: purchased Ambit KINOMEscan (DiscoverX)
Experimental: as §1

[14] = molecular target: T14, MARK1 (Homo sapiens, UniProt Q9P0L2); settings: MARK1, 1 uM
T14 construct: purchased Ambit KINOMEscan (DiscoverX)
T14 sequence (Q9P0L2 whole entry): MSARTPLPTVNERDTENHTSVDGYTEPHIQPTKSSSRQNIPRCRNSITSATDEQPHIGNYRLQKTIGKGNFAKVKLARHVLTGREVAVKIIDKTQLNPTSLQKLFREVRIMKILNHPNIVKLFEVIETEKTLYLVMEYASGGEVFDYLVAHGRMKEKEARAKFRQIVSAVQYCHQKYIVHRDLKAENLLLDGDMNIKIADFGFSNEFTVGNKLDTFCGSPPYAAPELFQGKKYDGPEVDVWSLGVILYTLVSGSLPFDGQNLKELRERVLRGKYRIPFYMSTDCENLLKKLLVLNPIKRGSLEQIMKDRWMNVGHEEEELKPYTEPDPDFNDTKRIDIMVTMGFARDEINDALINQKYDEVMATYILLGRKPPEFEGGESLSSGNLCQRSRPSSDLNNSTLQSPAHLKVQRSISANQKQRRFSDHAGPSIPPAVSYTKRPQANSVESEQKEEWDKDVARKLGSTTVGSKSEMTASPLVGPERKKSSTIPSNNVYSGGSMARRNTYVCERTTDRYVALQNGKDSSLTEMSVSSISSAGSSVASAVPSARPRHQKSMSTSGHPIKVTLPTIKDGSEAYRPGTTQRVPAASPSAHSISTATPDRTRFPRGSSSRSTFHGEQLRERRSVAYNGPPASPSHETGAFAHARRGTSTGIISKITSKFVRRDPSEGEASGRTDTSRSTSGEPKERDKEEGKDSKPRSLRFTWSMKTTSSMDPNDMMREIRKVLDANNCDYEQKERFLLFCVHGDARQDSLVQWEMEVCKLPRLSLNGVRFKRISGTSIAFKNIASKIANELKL
Experimental: as §1

[15] = molecular target: T15, CLK3 (Homo sapiens, UniProt P49761); settings: CLK3, 1 uM
T15 construct: purchased Ambit KINOMEscan (DiscoverX)
Experimental: as §1

[16] = molecular target: T16, ERK3 (Homo sapiens, UniProt Q16659); settings: ERK3, 1 uM
T16 construct: purchased Ambit KINOMEscan (DiscoverX)
T16 sequence (Q16659 whole entry): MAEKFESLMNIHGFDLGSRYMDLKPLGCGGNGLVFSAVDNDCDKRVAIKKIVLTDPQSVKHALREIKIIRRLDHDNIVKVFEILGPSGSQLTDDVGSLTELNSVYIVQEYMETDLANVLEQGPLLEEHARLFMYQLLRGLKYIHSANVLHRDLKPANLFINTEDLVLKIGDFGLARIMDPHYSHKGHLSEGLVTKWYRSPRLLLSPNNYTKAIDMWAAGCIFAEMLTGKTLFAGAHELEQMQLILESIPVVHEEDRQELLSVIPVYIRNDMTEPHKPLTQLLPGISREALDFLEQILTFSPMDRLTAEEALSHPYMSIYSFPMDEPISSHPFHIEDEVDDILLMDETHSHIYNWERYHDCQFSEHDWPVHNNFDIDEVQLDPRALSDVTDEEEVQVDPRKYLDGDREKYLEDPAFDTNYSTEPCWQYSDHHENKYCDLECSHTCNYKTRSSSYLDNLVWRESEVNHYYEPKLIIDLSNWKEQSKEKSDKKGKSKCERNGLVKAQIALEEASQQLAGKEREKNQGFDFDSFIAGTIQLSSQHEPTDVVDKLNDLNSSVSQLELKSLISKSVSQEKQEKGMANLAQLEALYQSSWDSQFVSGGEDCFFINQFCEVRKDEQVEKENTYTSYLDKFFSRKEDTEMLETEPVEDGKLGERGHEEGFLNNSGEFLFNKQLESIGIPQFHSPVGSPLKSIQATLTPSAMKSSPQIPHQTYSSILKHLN
Experimental: as §1

[17] = molecular target: T17, MAP3K1 (Homo sapiens, UniProt Q13233); settings: MAP3K1, 1 uM
T17 construct: purchased Ambit KINOMEscan (DiscoverX)
Experimental: as §1

[18] = molecular target: T18, MLK3 (Homo sapiens, UniProt Q16584); settings: MLK3, 1 uM
T18 construct: purchased Ambit KINOMEscan (DiscoverX)
Experimental: as §1

[19] = molecular target: T19, ARK5 (Homo sapiens, UniProt O60285); settings: ARK5, 1 uM
T19 construct: purchased Ambit KINOMEscan (DiscoverX)
Experimental: as §1

[20] = molecular target: T20, TTK (Homo sapiens, UniProt P33981); settings: 1 uM
T20 construct: purchased Ambit KINOMEscan (DiscoverX)
Experimental: as §1

[21] = molecular target: T21, EGFR(L858R) (Homo sapiens, UniProt P00533, L858R); settings: 1 uM
T21 construct: purchased Ambit KINOMEscan (DiscoverX)
Experimental: as §1

[22] = molecular target: T22, LCK (Homo sapiens, UniProt P06239); settings: 1 uM
T22 construct: purchased Ambit KINOMEscan (DiscoverX)
Experimental: as §1

[23] = molecular target: T23, PAK7 (Homo sapiens, UniProt Q9P286); settings: PAK7, 1 uM
T23 construct: purchased Ambit KINOMEscan (DiscoverX)
Experimental: as §1

[24] = molecular target: T24, RAF1 (Homo sapiens, UniProt P04049); settings: RAF1, 1 uM
T24 construct: purchased Ambit KINOMEscan (DiscoverX)
Experimental: as §1

[25] = molecular target: T25, BRAF (Homo sapiens, UniProt P15056); settings: 1 uM
T25 construct: purchased Ambit KINOMEscan (DiscoverX)
Experimental: as §1

[26] = molecular target: T26, BRSK1 (Homo sapiens, UniProt Q8TDC3); settings: BRSK1, 1 uM
T26 construct: purchased Ambit KINOMEscan (DiscoverX)
Experimental: as §1

[27] = molecular target: T27, ROS1 (Homo sapiens, UniProt P08922); settings: ROS1, 1 uM
T27 construct: purchased Ambit KINOMEscan (DiscoverX)
Experimental: as §1

[28] = molecular target: T28, FYN (Homo sapiens, UniProt P06241); settings: 1 uM
T28 construct: purchased Ambit KINOMEscan (DiscoverX)
Experimental: as §1

[29] = molecular target: T29, NLK (Homo sapiens, UniProt Q9UBE8); settings: 1 uM
T29 construct: purchased Ambit KINOMEscan (DiscoverX)
Experimental: as §1

[30] = molecular target: T30, YSK4 (Homo sapiens, UniProt Q56UN5); settings: YSK4, 1 uM
T30 construct: purchased Ambit KINOMEscan (DiscoverX)
Experimental: as §1

[31] = molecular target: T31, JAK2(JH1domain-catalytic) (Homo sapiens, UniProt O60674); settings: 1 uM
T31 construct: JAK2(JH1domain-catalytic); purchased Ambit KINOMEscan (DiscoverX)
T31 sequence (O60674 849-1132 limits assumed): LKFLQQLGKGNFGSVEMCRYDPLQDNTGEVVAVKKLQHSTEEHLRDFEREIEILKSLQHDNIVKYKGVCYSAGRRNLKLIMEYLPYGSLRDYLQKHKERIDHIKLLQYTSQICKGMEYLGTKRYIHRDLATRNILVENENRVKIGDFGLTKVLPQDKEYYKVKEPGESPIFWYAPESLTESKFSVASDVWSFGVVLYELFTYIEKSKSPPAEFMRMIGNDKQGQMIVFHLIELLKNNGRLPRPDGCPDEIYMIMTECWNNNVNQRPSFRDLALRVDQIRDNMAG
Experimental: as §1

[32] = molecular target: T32, PIK3CA(C420R) (Homo sapiens, UniProt P42336, C420R); settings: 1 uM
T32 construct: purchased Ambit KINOMEscan (DiscoverX)
Experimental: as §1

[33] = molecular target: T33, EGFR (Homo sapiens, UniProt P00533); settings: 1 uM
T33 construct: purchased Ambit KINOMEscan (DiscoverX)
Experimental: as §1

[34] = molecular target: T34, CDK2 (Homo sapiens, UniProt P24941); settings: CDK2, 1 uM
T34 construct: purchased Ambit KINOMEscan (DiscoverX)
Experimental: as §1

[35] = molecular target: T35, CLK2 (Homo sapiens, UniProt P49760); settings: CLK2, 1 uM
T35 construct: purchased Ambit KINOMEscan (DiscoverX)
Experimental: as §1

[36] = molecular target: T36, FGFR1 (Homo sapiens, UniProt P11362); settings: FGFR1, 1 uM
T36 construct: purchased Ambit KINOMEscan (DiscoverX)
Experimental: as §1

[37] = molecular target: T37, ABL1(F317I)-nonphosphorylated (Homo sapiens, UniProt P00519, F317I); settings: 1 uM
T37 construct: purchased Ambit KINOMEscan (DiscoverX)
Experimental: as §1

[38] = molecular target: T38, EGFR(E746-A750del) (Homo sapiens, UniProt P00533, DEL746-750); settings: 1 uM
T38 construct: purchased Ambit KINOMEscan (DiscoverX)
Experimental: as §1

[39] = molecular target: T39, MAP3K2 (Homo sapiens, UniProt Q9Y2U5); settings: MAP3K2, 1 uM
T39 construct: purchased Ambit KINOMEscan (DiscoverX)
Experimental: as §1

SMILES | % binding compared to no inhibitor control [1] [%] | % binding compared to no inhibitor control [2] [%] | % binding compared to no inhibitor control [3] [%] | % binding compared to no inhibitor control [4] [%] | % binding compared to no inhibitor control [5] [%] | % binding compared to no inhibitor control [6] [%] | % binding compared to no inhibitor control [7] [%] | % binding compared to no inhibitor control [8] [%] | % binding compared to no inhibitor control [9] [%] | % binding compared to no inhibitor control [10] [%] | % binding compared to no inhibitor control [11] [%] | % binding compared to no inhibitor control [12] [%] | % binding compared to no inhibitor control [13] [%] | % binding compared to no inhibitor control [14] [%] | % binding compared to no inhibitor control [15] [%] | % binding compared to no inhibitor control [16] [%] | % binding compared to no inhibitor control [17] [%] | % binding compared to no inhibitor control [18] [%] | % binding compared to no inhibitor control [19] [%] | % binding compared to no inhibitor control [20] [%] | further results
COc1ccc(-c2cc3nccn3c(Nc3ncccc3C(N)=O)n2)cc1OC.Cl.Cl [BAY61-3606, 2-[7-(3,4-dimethoxyphenyl)-imidazo [1,2-c]pyrimidin-5-ylamino] nicotinamide dihydrochloride, reference compound] | 8.4 | 24 | 86 | 100 | 76 | 13 | 66 | 84 | 54 | 100 | 64 | 21 | 47 | 100 | 100 | 73 | 100 | 77 | 62 | 51 | % inhibition ATP binding ([6]; ROCK2, KINOMEscan, 1 μM): 87%; % binding compared to no inhibitor control [21]: 100%; % binding compared to no inhibitor control [22]: 87%; % binding compared to no inhibitor control [23]: 72%; % binding compared to no inhibitor control [24]: 81%; % binding compared to no inhibitor control [25]: 90%; % binding compared to no inhibitor control [26]: 82%; % binding compared to no inhibitor control [27]: 45%; % binding compared to no inhibitor control [28]: 100%; % binding compared to no inhibitor control [29]: 88%; % binding compared to no inhibitor control [30]: 1.8%; % binding compared to no inhibitor control [31]: 90%; % binding compared to no inhibitor control [32]: 100%; % binding compared to no inhibitor control [33]: 87%; % binding compared to no inhibitor control [34]: 86%; % binding compared to no inhibitor control [35]: 12%; % binding compared to no inhibitor control [36]: 93%; % binding compared to no inhibitor control [37]: 100%; % binding compared to no inhibitor control [38]: 49%; % binding compared to no inhibitor control [39]: 55%
COc1ccccc1Nc1nc(-c2ccc(OC)c(OC)c2)cc2nccn12 [BAY derivative 6] | 60 | 100 | 97 | 60 | 95 | 96 | 76 | 52 | 100 | 84 | 100 | 100 | 100 | 100 | 100 | 88 | 100 | 100 | 93 | 74 | % binding compared to no inhibitor control [21]: 88%; % binding compared to no inhibitor control [22]: 41%; % binding compared to no inhibitor control [23]: 98%; % binding compared to no inhibitor control [24]: 100%; % binding compared to no inhibitor control [25]: 100%; % binding compared to no inhibitor control [26]: 100%; % binding compared to no inhibitor control [27]: 36%; % binding compared to no inhibitor control [28]: 61%; % binding compared to no inhibitor control [29]: 82%; % binding compared to no inhibitor control [30]: 60%; % binding compared to no inhibitor control [31]: 13%; % binding compared to no inhibitor control [32]: 100%; % binding compared to no inhibitor control [33]: 100%; % binding compared to no inhibitor control [34]: 100%; % binding compared to no inhibitor control [35]: 63%; % binding compared to no inhibitor control [36]: 100%; % binding compared to no inhibitor control [37]: 100%; % binding compared to no inhibitor control [38]: 75%; % binding compared to no inhibitor control [39]: 88%
